The source of these data is paper PMC3283556, “The Activities of Current Antimalarial Drugs on the Life Cycle Stages of Plasmodium: A Comparative Study with Human and Rodent Parasites” (PLoS Medicine, 2012).

The structures appear in SMILES notation. “Also recorded” adds a separate entry of the source.

Data set [1] relates to P. falciparum and P. vivax. Also noted: method as in personal communication, MMV. To be noted: phase IIa, P. falciparum and P. vivax patients; ref personal communication, MMV; cited from earlier work.
The test system of data set [2] is P. falciparum mature gametocytes / male gamete exflagellation. As to the kind of experiment: P. falciparum exflagellation assay. The format is cell-based, Plasmodium falciparum. As to conditions: for effect on exflagellation (words): 10 µM, 24 h exposure of mature gametocytes.
The next data set has as its system Plasmodium oocysts. As to the kind of experiment: Oocyst development / sporogony, Plasmodium species not stated at the place. Type of data set: in vivo. To be noted: for inhibition at 10 µM: Plasmodium, box linked to oocysts, read-out: Inhibition at 10 μM (oocysts, Figure 5); for effect on sporogony / oocyst production: species not given. The procedure:
(§1) Membrane feeds were performed as described previously. Briefly, PbGFPcon-infected mouse blood was mixed with compounds, immediately placed into membrane feeders (39°C) and offered for 30 min to 80–100 overnight-starved A. stephensi (SDA 500 strain). After 7–9 d at 19°C/80%RH, mosquito midguts were dissected out. Midguts were fixed with paraformaldehyde and oocyst number was determined microscopically by semi-automated analysis as previously described.
Gametocyte cultures were produced according to the same protocol as the Pf exflagellation assay. Pooled gametocyte cultures were evenly divided between compounds in fresh medium and incubated at 37°C for 24 h. The parasite pellets were then resuspended in fresh RBCs and human serum treated with the compounds to a 50% haematocrit and immediately fed to mosquitoes as described above and then maintained at 27°C/60%RH for 10–12 d before dissection and counting. […]

Data set [3] has as its system P. berghei oocyst formation. As to the kind of experiment: Standard membrane feed assay, P. berghei oocysts in A. stephensi. The format is in vivo, Plasmodium berghei. To be noted: for transmission-blocking effect on P. berghei oocysts (words): 10 µM. The procedure:
as §1
Supplementary file pmed.1001169.s001.tif: Figure S1 The transmission-blocking potential of selected compounds against P. berghei in standard membrane feeding assays. All antimalarials were screened at 10 µM in triplicate in independent experiments. The biological content of this assay spans gamete formation through to occyst development all within the gut of the mosquito. […] (TIF) Click here for additional data file.

Details of data set [4]: method as in PMID 22759078, PMID 17053895, PMID 18694333, PMID 18840754, PMID 19776738. To be noted: human blood, therapeutic / relevant doses; cited from earlier work.
The test system of data set [5] is P. falciparum oocyst formation. As to the kind of experiment: Standard membrane feed assay, P. falciparum oocysts in A. stephensi. As to conditions: 10 µM, gametocytes exposed 24 h before feeding. Type of data set: in vivo, Plasmodium falciparum. As to the method: Gametocyte cultures were produced according to the same protocol as the Pf exflagellation assay. Pooled gametocyte cultures were evenly divided between compounds in fresh medium and incubated at 37°C for 24 h. The parasite pellets were then resuspended in fresh RBCs and human serum treated with the compounds to a 50% haematocrit and immediately fed to mosquitoes as described above and then maintained at 27°C/60%RH for 10–12 d before dissection and counting.
(§2) Figure 3 The transmission-blocking potential of selected antimalarials in three bioassays that cover different phases of Plasmodium vector stage development. (A) Assays examined exflagellation (P. falciparum), ookinete formation (P. berghei), or oocyst formation (P. falciparum). All antimalarials were screened at 10 µM. (B) The biological content of the in vitro P. berghei ookinete assay spans gamete formation, fertilization, zygote development, and ookinete formation. Ookinete formation was insensitive to most of the antimalarials tested. […] (D) The in vitro P. falciparum exflagellation assay exposes mature gametocytes to antimalarials for 24 h before triggering exflagellation. […] All experiments in triplicate. (E) The in vivo P. falciparum oocyst assay differs from the P. berghei oocyst assay in that mature gametocytes were exposed to the antimalarials in culture for 24 h before feeding to mosquitoes. […] NPC1161-B, lumefantrine, halofantrine, and mefloquine +RS isomer were also active. (n = 4–61 observations; average ± standard error of the mean [SEM]).

Data set [6] deals with P. falciparum asexual blood stage parasites (strains NF54, D6, K1, W2, 7G8, TM90C2A, V1/S). As to the kind of experiment: [3H]-hypoxanthine incorporation growth inhibition assay, asexual blood stage. Type of data set: cell-based, Plasmodium falciparum. To be noted: Plasmodium falciparum.
In data set [7] the test system is P. berghei ookinete formation. The data set is described as follows: P. berghei ookinete development assay. Type of data set: cell-based, Plasmodium berghei. To be noted: 10 µM. As to the method:
Compounds and P. berghei gametocyte-infected blood were dispensed in a 96-well plate containing ookinete medium. After 24 h at 19°C, Giemsa-stained ookinetes were counted under the microscope (×40) as previously described,[28].
as §2

With `c1cc([C@H]2CC[C@]3(CC2)OO[C@]2(O3)C3CC4CC(C3)CC2C4)ccc1OCCN1CCOCC1` [OZ439], the “clinical efficacy” value in data set [1] was “equivalent efficacy in the treatment of P. falciparum and P. vivax patients”. Besides, in data set [2], the “effect on exflagellation (words)” value is listed as “strong inhibitors of gametocyte maturation/gamete formation”. For the same compound, the inhibition at 10 µM in data set [2] (Plasmodium falciparum, 10 μM, box linked to gametocytes/exflagellation, read-out: Inhibition at 10 μM (gametocytes/exflagellation, Figure 5)) was > 60%. In the data set on Plasmodium oocysts, the inhibition at 10 µM is > 90% and the “effect on sporogony / oocyst production” value is reported as “impact sporogony”.
Turning to `CCCCN(CCCC)CC(O)c1cc(Cl)cc2c1-c1ccc(Cl)cc1/C2=C/c1ccc(Cl)cc1` (centres unmarked) [lumefantrine], the “effect on exflagellation (words)” value is given as “only moderate or no inhibition of exflagellation” in data set [2] and “little activity” in data set [2] (listed as Lumefantrine). Besides, the “transmission-blocking effect on P. berghei oocysts (words)” value is “impaired sporogony; also recorded: most notable transmission-blocking activity” in data set [3] and “showed activity” in data set [3] (listed as Lumefantrine). The inhibition at 10 µM (in data set [3] (Plasmodium berghei); with Plasmodium oocysts) was > 90% each time. For the same compound, the Cmax in data set [4] is 13.9 µM. For the same compound, in the data set with Plasmodium oocysts, the “effect on sporogony / oocyst production” value was “impairs development in the vector”. Besides, the “transmission-blocking effect on P. falciparum oocysts (words)” value in data set [5] was “active; also recorded: impaired sporogony”; in data set [5] (listed as Lumefantrine), “showed activity”. In data set [6], the half-inhibitory concentration (IC50) is < 4 nM. For the same compound, the “effect on ookinete formation” value in data set [7] was “little activity”.

As usually defined, the Cmax is the maximum level reached in the sampled fluid or tissue. As a reminder, the IC50 is the midpoint of a concentration-inhibition curve. The low end stands for greater potency, the high end for weaker potency.
